Data published in patent publication US6355799B1, “Substituted benzene compounds, process for their preparation, and herbicidal and defoliant compositions containing them” (ISK Americas Incorporated, priority 1997, dated 2002).

Legend:
Format in all cases: in vivo
[1] = tested on: redroot pigweed (Amaranthus retroflexus, AMARE); test: Pre-emerge test, greenhouse herbicide activity screening; conditions: phytotoxicity rating 0-100, 14 days after application
How it was run: (§1)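 Visual ratings on a 0-100 scale (0 no damage, 100 all plants dead) were taken at 14 days after treatment. Rates of 15-1000 g ai/ha in acetone, 187 l/ha, were sprayed onto soil one day after planting (pre-emerge) or onto 2-3 leaf plants with 0.25% v/v surfactant (post-emerge).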

[2] = tested on: barnyardgrass (Echinochloa crus-galli, ECHCG); test: as above; conditions: phytotoxicity rating 0-100, 14 days after application
How it was run: as §1

[3] = tested on: green foxtail (Setaria viridis, SETVI); test: as above; conditions: phytotoxicity rating 0-100, 14 days after application
How it was run: as §1

[4] = tested on: ivyleaf morningglory (Ipomoea hederacea, IPOHE); test: as above; conditions: phytotoxicity rating 0-100, 14 days after application
How it was run: as §1

[5] = tested on: johnsongrass (Sorghum halepense, SORHA); test: as above; conditions: phytotoxicity rating 0-100, 14 days after application
How it was run: as §1

[6] = tested on: lambsquarters (Chenopodium album, CHEAL); test: as above; conditions: phytotoxicity rating 0-100, 14 days after application
How it was run: as §1

[7] = tested on: large crabgrass (Digitaria sanguinalis, DIGSA); test: as above; conditions: phytotoxicity rating 0-100, 14 days after application
How it was run: as §1

[8] = tested on: sicklepod (Cassia obtusifolia, CASOB); test: as above; conditions: phytotoxicity rating 0-100, 14 days after application
How it was run: as §1

[9] = tested on: velvetleaf (Abutilon theophrasti, ABUTH); test: as above; conditions: phytotoxicity rating 0-100, 14 days after application
How it was run: as §1

[10] = tested on: field corn (Zea mays L., var. Dekalb 535, CORN); test: Pre-emerge test, crop safety; conditions: crop damage rating 0-100, 14 days after application
How it was run: (§2)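 Applied at 15–1000 g ai/ha from acetone in 187 l/ha spray volume. Post-emergence applications included 0.25% v/v non-ionic surfactant and reached plants sown 8–21 days before. Pre-emergence applications were incorporated by surface watering. Efficacy or crop damage was rated on a 0–100 scale after 14 days.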

[11] = tested on: upland rice (Oryza sp., var. Tebonnet, RICE); test: Pre-emerge test, crop safety; conditions: crop damage rating 0-100, 14 days after application
How it was run: as §2

[12] = tested on: barnyardgrass (Echinochloa crus-galli, ECHCG); test: Post-emerge test, greenhouse herbicide activity screening; conditions: post-emerge, 14 days after application, rating scale 0-100
How it was run: (§3)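 Each test used a mechanized track sprayer delivering 187 l/ha of acetone solution at 15–1000 g ai/ha. Post-emerge foliage at 2–3 leaves was treated with added 0.25% v/v non-ionic surfactant and bottom-watered only. Injury was assessed on day 14, where 100 means total kill.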

[13] = tested on: green foxtail (Setaria viridis, SETVI); test: as above; conditions: post-emerge, 14 days after application, rating scale 0-100
How it was run: as §3

[14] = tested on: ivyleaf morningglory (Ipomoea hederacea, IPOHE); test: as above; conditions: post-emerge, 14 days after application, rating scale 0-100
How it was run: as §3

[15] = tested on: johnsongrass (Sorghum halepense, SORHA); test: as above; conditions: post-emerge, 14 days after application, rating scale 0-100
How it was run: as §3

[16] = tested on: lambsquarters (Chenopodium album, CHEAL); test: as above; conditions: post-emerge, 14 days after application, rating scale 0-100
How it was run: as §3

[17] = tested on: large crabgrass (Digitaria sanguinalis, DIGSA); test: as above; conditions: post-emerge, 14 days after application, rating scale 0-100
How it was run: as §3

[18] = tested on: redroot pigweed (Amaranthus retroflexus, AMARE); test: as above; conditions: post-emerge, 14 days after application
How it was run: as §3

[19] = tested on: sicklepod (Cassia obtusifolia, CASOB); test: as above; conditions: post-emerge, 14 days after application, rating scale 0-100
How it was run: as §3

[20] = tested on: velvetleaf (Abutilon theophrasti, ABUTH); test: as above; conditions: post-emerge, 14 days after application, rating scale 0-100
How it was run: as §3

[21] = tested on: field corn (Zea mays L., var. Dekalb 535, CORN); test: Post-emerge test, crop safety; conditions: post-emerge, 14 days after application, rating scale 0-100
How it was run: as §1

[22] = tested on: upland rice (Oryza sp., var. Tebonnet, RICE); test: Post-emerge test, crop safety; conditions: post-emerge, 14 days after application, rating scale 0-100
How it was run: as §1

[23] = 63 g ai/ha, rating scale 0-100 (0 no damage, 100 complete death)
[24] = 250 g ai/ha, rating scale 0-100

SMILES: Cc1c(Cl)cc(F)c(-n2c(=O)cc(C(F)(F)F)n(C)c2=O)c1NC(=O)OCc1ccccc1Cl [4-54]
- Pre-emerge Herbicidal Activity AMARE ([1]; 63 g ai/ha): 100
- Pre-emerge Herbicidal Activity AMARE ([1]; 250 g ai/ha): 100
- Pre-emerge Herbicidal Activity ECHCG ([2]; 63 g ai/ha): 50
- Pre-emerge Herbicidal Activity ECHCG ([2]; 250 g ai/ha): 85
- Pre-emerge Herbicidal Activity SETVI ([3]; 63 g ai/ha): 90
- Pre-emerge Herbicidal Activity SETVI ([3]; 250 g ai/ha): 100
- Pre-emerge Herbicidal Activity IPOHE ([4]; 63 g ai/ha): 30
- Pre-emerge Herbicidal Activity IPOHE ([4]; 250 g ai/ha): 70
- Pre-emerge Herbicidal Activity SORHA ([5]; 63 g ai/ha): 30
- Pre-emerge Herbicidal Activity SORHA ([5]; 250 g ai/ha): 80
- Pre-emerge Herbicidal Activity CHEAL ([6]; 63 g ai/ha): 90
- Pre-emerge Herbicidal Activity CHEAL ([6]; 250 g ai/ha): 100
- Pre-emerge Herbicidal Activity DIGSA ([7]; 63 g ai/ha): 60
- Pre-emerge Herbicidal Activity DIGSA ([7]; 250 g ai/ha): 100
- Pre-emerge Herbicidal Activity CASOB ([8]; 63 g ai/ha): 30
- Pre-emerge Herbicidal Activity CASOB ([8]; 250 g ai/ha): 80
- Pre-emerge Herbicidal Activity ABUTH ([9]; 63 g ai/ha): 100
- Pre-emerge Herbicidal Activity ABUTH ([9]; 250 g ai/ha): 90
- Pre-emerge Herbicidal Activity CORN ([10]; 63 g ai/ha): 0
- Pre-emerge Herbicidal Activity CORN ([10]; 250 g ai/ha): 5
- Pre-emerge Herbicidal Activity RICE ([11]; 63 g ai/ha): 10
- Pre-emerge Herbicidal Activity RICE ([11]; 250 g ai/ha): 60
- phytotoxicity rating ECHCG ([12]; 63 g ai/ha): 70
- phytotoxicity rating ECHCG ([12]; 250 g ai/ha): 80
- phytotoxicity rating SETVI ([13]; 63 g ai/ha): 80
- phytotoxicity rating SETVI ([13]; 250 g ai/ha): 90
- phytotoxicity rating IPOHE ([14]; 63 g ai/ha): 100
- phytotoxicity rating IPOHE ([14]; 250 g ai/ha): 100
- phytotoxicity rating SORHA ([15]; 63 g ai/ha): 40
- phytotoxicity rating SORHA ([15]; 250 g ai/ha): 70
- phytotoxicity rating CHEAL ([16]; 63 g ai/ha): 100
- phytotoxicity rating CHEAL ([16]; 250 g ai/ha): 100
- phytotoxicity rating DIGSA ([17]; 63 g ai/ha): 30
- phytotoxicity rating DIGSA ([17]; 250 g ai/ha): 60
- phytotoxicity rating AMARE [18, 23]: 100
- phytotoxicity rating AMARE [18, 24]: 100
- phytotoxicity rating CASOB ([19]; 63 g ai/ha): 90
- phytotoxicity rating CASOB ([19]; 250 g ai/ha): 100
- phytotoxicity rating ABUTH ([20]; 63 g ai/ha): 100
- phytotoxicity rating ABUTH ([20]; 250 g ai/ha): 100
- phytotoxicity rating CORN (crop damage) ([21]; 63 g ai/ha): 40
- phytotoxicity rating CORN (crop damage) ([21]; 250 g ai/ha): 75
- phytotoxicity rating RICE (crop damage) ([22]; 63 g ai/ha): 90
- phytotoxicity rating RICE (crop damage) ([22]; 250 g ai/ha): 100

SMILES: COc1c(Cl)cc(F)c(-n2c(=O)cc(C(F)(F)F)n(C)c2=O)c1NC(=O)OCc1ccc(F)c(F)c1 [4-30]
- Pre-emerge Herbicidal Activity AMARE ([1]; 63 g ai/ha): 100
- Pre-emerge Herbicidal Activity AMARE ([1]; 250 g ai/ha): 100
- Pre-emerge Herbicidal Activity ECHCG ([2]; 63 g ai/ha): 60
- Pre-emerge Herbicidal Activity ECHCG ([2]; 250 g ai/ha): 90
- Pre-emerge Herbicidal Activity SETVI ([3]; 63 g ai/ha): 100
- Pre-emerge Herbicidal Activity SETVI ([3]; 250 g ai/ha): 100
- Pre-emerge Herbicidal Activity IPOHE ([4]; 63 g ai/ha): 60
- Pre-emerge Herbicidal Activity IPOHE ([4]; 250 g ai/ha): 100
- Pre-emerge Herbicidal Activity SORHA ([5]; 63 g ai/ha): 30
- Pre-emerge Herbicidal Activity SORHA ([5]; 250 g ai/ha): 80
- Pre-emerge Herbicidal Activity CHEAL ([6]; 63 g ai/ha): 100
- Pre-emerge Herbicidal Activity CHEAL ([6]; 250 g ai/ha): 100
- Pre-emerge Herbicidal Activity DIGSA ([7]; 63 g ai/ha): 90
- Pre-emerge Herbicidal Activity DIGSA ([7]; 250 g ai/ha): 100
- Pre-emerge Herbicidal Activity CASOB ([8]; 63 g ai/ha): 90
- Pre-emerge Herbicidal Activity CASOB ([8]; 250 g ai/ha): 95
- Pre-emerge Herbicidal Activity ABUTH ([9]; 63 g ai/ha): 100
- Pre-emerge Herbicidal Activity ABUTH ([9]; 250 g ai/ha): 100
- Pre-emerge Herbicidal Activity CORN ([10]; 63 g ai/ha): 30
- Pre-emerge Herbicidal Activity CORN ([10]; 250 g ai/ha): 70
- Pre-emerge Herbicidal Activity RICE ([11]; 63 g ai/ha): 90
- Pre-emerge Herbicidal Activity RICE ([11]; 250 g ai/ha): 90
- phytotoxicity rating ECHCG ([12]; 63 g ai/ha): 50
- phytotoxicity rating ECHCG ([12]; 250 g ai/ha): 90
- phytotoxicity rating SETVI ([13]; 63 g ai/ha): 80
- phytotoxicity rating SETVI ([13]; 250 g ai/ha): 100
- phytotoxicity rating IPOHE ([14]; 63 g ai/ha): 100
- phytotoxicity rating IPOHE ([14]; 250 g ai/ha): 100
- phytotoxicity rating SORHA ([15]; 63 g ai/ha): 50
- phytotoxicity rating SORHA ([15]; 250 g ai/ha): 100
- phytotoxicity rating CHEAL ([16]; 63 g ai/ha): 100
- phytotoxicity rating CHEAL ([16]; 250 g ai/ha): 100
- phytotoxicity rating DIGSA ([17]; 63 g ai/ha): 50
- phytotoxicity rating DIGSA ([17]; 250 g ai/ha): 85
- phytotoxicity rating AMARE [18, 23]: 100
- phytotoxicity rating AMARE [18, 24]: 100
- phytotoxicity rating CASOB ([19]; 63 g ai/ha): 100
- phytotoxicity rating CASOB ([19]; 250 g ai/ha): 100
- phytotoxicity rating ABUTH ([20]; 63 g ai/ha): 100
- phytotoxicity rating ABUTH ([20]; 250 g ai/ha): 100
- phytotoxicity rating CORN (crop damage) ([21]; 63 g ai/ha): 90
- phytotoxicity rating CORN (crop damage) ([21]; 250 g ai/ha): 99
- phytotoxicity rating RICE (crop damage) ([22]; 63 g ai/ha): 80
- phytotoxicity rating RICE (crop damage) ([22]; 250 g ai/ha): 85
